Measurements: patent US20080004344A1, “Novel Salts of Fumaric Acid Monoalkylesters and Their Pharmaceutical Use” (ADITECH PHARMA AB, priority 2004, published 2008)

Assays:
IL-4 = assay: T cell specific stimulation of PBMC (CD3/CD28 beads), IL-4 ELISA; assay type: cell-based, human; settings: for IL-4 Conc: CD3/CD28 beads
Method: (§1) PBMC were isolated from blood of two healthy volunteers (person) via Ficoll density gradient centrifugation. The purified cells were used in parallel cultures for monocyte stimulations using Lipopolysaccharide (LPS) and T cell specific stimulations using bead-coupled antibodies directed against the T cell activation antigens CD3 and CD28.
(§2) Cultures were incubated in a tissue culture incubator at 37° C., 5% CO2 for 20 h, culture supernatants were harvested at the end of the culture period and used for cytokine quantitation. The measured cytokines in cell culture supernatants from either monocyte stimulation cultures (IL-8, IL-10, TNF-α) or T cell stimulation cultures (IL-2, IL-4) were quantitated with ELISAs (Becton Dickinson) according to the manufacturers instructions. The resulting optical density (OD) was measured on a Packard Fusion Reader and OD values were translated to cytokine concentrations (in pg/ml) with the use of the Fusion Reader Data Analysis Software.

IL-8 = assay: Monocyte stimulation cultures of PBMC (LPS or unstimulated), IL-8 ELISA
IL-2 = assay: T cell specific stimulation of PBMC (CD3/CD28 beads), IL-2 ELISA; assay type: cell-based, human; settings: for IL-2 Conc: CD3/CD28 beads
Method: as §1, §2

IL-10 = assay: Monocyte stimulation cultures of PBMC (LPS or unstimulated), IL-10 ELISA
[1] = pH-value of the solution on dissolving in water; assay type: physicochemical; settings: dissolved in water
Method: When strontium monomethyl fumarate is dissolved in water, the pH-value of the solution raises to alkaline values (pH˜9-10), owing to production of hydroxyl ions: Sr(C5H5O4)2+2H2O→Sr^2+(aq)+2C5H6O4(aq)+2OH^−(aq) (2)

TNF-alpha = assay: Monocyte stimulation cultures of PBMC (LPS or unstimulated), TNF-alpha ELISA; assay type: cell-based, human
Method: as §1, §2

[2] = LPS 1 ng/ml, 10 μM MMF, Donor 1
[3] = LPS 1 ng/ml, 10 μM MMF, Donor 2
[4] = LPS 1 ng/ml, 30 μM MMF, Donor 1
[5] = LPS 1 ng/ml, 30 μM MMF, Donor 2
[6] = LPS 1 ng/ml, 100 μM MMF, Donor 1
[7] = LPS 1 ng/ml, 100 μM MMF, Donor 2
[8] = LPS 1 ng/ml, 300 μM MMF, Donor 1
[9] = LPS 1 ng/ml, 300 μM MMF, Donor 2
[10] = no LPS printed for these rows, 1 μM MMF, Donor 1
[11] = no LPS printed for these rows, 1 μM MMF, Donor 2
[12] = no LPS printed for these rows, 3 μM MMF, Donor 1
[13] = no LPS printed for these rows, 3 μM MMF, Donor 2
[14] = no LPS printed for these rows, 10 μM MMF, Donor 1
[15] = no LPS printed for these rows, 10 μM MMF, Donor 2
[16] = no LPS printed for these rows, 30 μM MMF, Donor 1
[17] = no LPS printed for these rows, 30 μM MMF, Donor 2
[18] = no LPS printed for these rows, 100 μM MMF, Donor 1
[19] = no LPS printed for these rows, 100 μM MMF, Donor 2
[20] = no LPS printed for these rows, 300 μM MMF, Donor 1
[21] = no LPS printed for these rows, 300 μM MMF, Donor 2
[22] = no LPS printed for these rows, 1 mM MMF, Donor 1
[23] = no LPS printed for these rows, 1 mM MMF, Donor 2
[24] = no LPS printed for these rows, 3 mM MMF, Donor 1
[25] = no LPS printed for these rows, 3 mM MMF, Donor 2
[26] = as single stimulant (unstimulated monocytes)

## di-strontium-tetrakis-(mono methyl fumarate)-tetra hydrate [strontium MMF]
IL-4; 1 μM MMF, Donor 1
  IL-4 Conc: 60 pg/mL
IL-4; 1 μM MMF, Donor 2
  IL-4 Conc: 12 pg/mL
IL-4; 3 μM MMF, Donor 1
  IL-4 Conc: 70 pg/mL
IL-4; 3 μM MMF, Donor 2
  IL-4 Conc: 10 pg/mL
IL-4; 10 μM MMF, Donor 1
  IL-4 Conc: 69 pg/mL
IL-4; 10 μM MMF, Donor 2
  IL-4 Conc: 12 pg/mL
IL-4; 30 μM MMF, Donor 1
  IL-4 Conc: 92 pg/mL
IL-4; 30 μM MMF, Donor 2
  IL-4 Conc: 20 pg/mL
IL-4; 100 μM MMF, Donor 1
  IL-4 Conc: 3 pg/mL
IL-4; 100 μM MMF, Donor 2
  IL-4 Conc: 0 pg/mL
IL-4; 300 μM MMF, Donor 1
  IL-4 Conc: 0 pg/mL
IL-4; 300 μM MMF, Donor 2
  IL-4 Conc: 0 pg/mL
IL-4; 1 mM MMF, Donor 1
  IL-4 Conc: 0 pg/mL
IL-4; 1 mM MMF, Donor 2
  IL-4 Conc: 0 pg/mL
IL-4; 3 mM MMF, Donor 1
  IL-4 Conc: 0 pg/mL
IL-4; 3 mM MMF, Donor 2
  IL-4 Conc: 0 pg/mL
IL-4; after T-cell stimulation
  effect on IL-4 secretion: co-induction
IL-8; LPS 1 ng/ml, 1 μM MMF, Donor 1
  IL-8 Conc: 35264 pg/mL
IL-8; LPS 1 ng/ml, 1 μM MMF, Donor 2
  IL-8 Conc: 25146 pg/mL
IL-8; LPS 1 ng/ml, 3 μM MMF, Donor 1
  IL-8 Conc: 26255 pg/mL
IL-8; LPS 1 ng/ml, 3 μM MMF, Donor 2
  IL-8 Conc: 24672 pg/mL
IL-8; [2]
  IL-8 Conc: 1259306 pg/mL
IL-8; [3]
  IL-8 Conc: 70691 pg/mL
IL-8; [4]
  IL-8 Conc: 1369127 pg/mL
IL-8; [5]
  IL-8 Conc: 1357587 pg/mL
IL-8; [6]
  IL-8 Conc: 80524 pg/mL
IL-8; [7]
  IL-8 Conc: 1285660 pg/mL
IL-8; [8]
  IL-8 Conc: 7135 pg/mL
IL-8; [9]
  IL-8 Conc: 31370 pg/mL
IL-8; LPS 1 ng/ml, 1 mM MMF, Donor 1
  IL-8 Conc: 558 pg/mL
IL-8; LPS 1 ng/ml, 1 mM MMF, Donor 2
  IL-8 Conc: 2825 pg/mL
IL-8; LPS 1 ng/ml, 3 mM MMF, Donor 1
  IL-8 Conc: 86 pg/mL
IL-8; LPS 1 ng/ml, 3 mM MMF, Donor 2
  IL-8 Conc: 424 pg/mL
IL-8; LPS stimulated monocytes
  effect on IL-8 secretion: did not induce a co-stimulation
IL-8; [10]
  IL-8 Conc: 138285 pg/mL
IL-8; [11]
  IL-8 Conc: 241352 pg/mL
IL-8; [12]
  IL-8 Conc: 219130 pg/mL
IL-8; [13]
  IL-8 Conc: 349450 pg/mL
IL-8; [14]
  IL-8 Conc: 249798 pg/mL
IL-8; [15]
  IL-8 Conc: 446267 pg/mL
IL-8; [16]
  IL-8 Conc: 179340 pg/mL
IL-8; [17]
  IL-8 Conc: 315447 pg/mL
IL-8; [18]
  IL-8 Conc: 60312 pg/mL
IL-8; [19]
  IL-8 Conc: 153980 pg/mL
IL-8; [20]
  IL-8 Conc: 12354 pg/mL
IL-8; [21]
  IL-8 Conc: 31040 pg/mL
IL-8; [22]
  IL-8 Conc: 1696 pg/mL
IL-8; [23]
  IL-8 Conc: 5363 pg/mL
IL-8; [24]
  IL-8 Conc: 176 pg/mL
IL-8; [25]
  IL-8 Conc: 577 pg/mL
IL-8; unstimulated monocytes
  effect on IL-8 secretion: did induce an induction
IL-2; 1 μM MMF, Donor 1
  IL-2 Conc: 5787 pg/mL
IL-2; 1 μM MMF, Donor 2
  IL-2 Conc: 2559 pg/mL
IL-2; 3 μM MMF, Donor 1
  IL-2 Conc: 4699 pg/mL
IL-2; 3 μM MMF, Donor 2
  IL-2 Conc: 1754 pg/mL
IL-2; 10 μM MMF, Donor 1
  IL-2 Conc: 5901 pg/mL
IL-2; 10 μM MMF, Donor 2
  IL-2 Conc: 1905 pg/mL
IL-2; 30 μM MMF, Donor 1
  IL-2 Conc: 4592 pg/mL
IL-2; 30 μM MMF, Donor 2
  IL-2 Conc: 2079 pg/mL
IL-2; 100 μM MMF, Donor 1
  IL-2 Conc: 170 pg/mL
IL-2; 100 μM MMF, Donor 2
  IL-2 Conc: 65 pg/mL
IL-2; 300 μM MMF, Donor 1
  IL-2 Conc: 2 pg/mL
IL-2; 300 μM MMF, Donor 2
  IL-2 Conc: 0 pg/mL
IL-2; 1 mM MMF, Donor 1
  IL-2 Conc: 0 pg/mL
IL-2; 1 mM MMF, Donor 2
  IL-2 Conc: 1 pg/mL
IL-2; 3 mM MMF, Donor 1
  IL-2 Conc: 1 pg/mL
IL-2; 3 mM MMF, Donor 2
  IL-2 Conc: 3 pg/mL
IL-2; after T-cell stimulation
  effect on IL-2 secretion: co-induction
IL-10; LPS 1 ng/ml, 1 μM MMF, Donor 1
  IL-10 Conc: 11 pg/mL
IL-10; LPS 1 ng/ml, 1 μM MMF, Donor 2
  IL-10 Conc: 11 pg/mL
IL-10; LPS 1 ng/ml, 3 μM MMF, Donor 1
  IL-10 Conc: 13 pg/mL
IL-10; LPS 1 ng/ml, 3 μM MMF, Donor 2
  IL-10 Conc: 5 pg/mL
IL-10; [2]
  IL-10 Conc: 106 pg/mL
IL-10; [3]
  IL-10 Conc: 13 pg/mL
IL-10; [4]
  IL-10 Conc: 62 pg/mL
IL-10; [5]
  IL-10 Conc: 32 pg/mL
IL-10; [6]
  IL-10 Conc: 7 pg/mL
IL-10; [7]
  IL-10 Conc: 0 pg/mL
IL-10; [8]
  IL-10 Conc: 0 pg/mL
IL-10; [9]
  IL-10 Conc: 0 pg/mL
IL-10; LPS 1 ng/ml, 1 mM MMF, Donor 1
  IL-10 Conc: 2 pg/mL
IL-10; LPS 1 ng/ml, 1 mM MMF, Donor 2
  IL-10 Conc: 0 pg/mL
IL-10; LPS 1 ng/ml, 3 mM MMF, Donor 1
  IL-10 Conc: 1 pg/mL
IL-10; LPS 1 ng/ml, 3 mM MMF, Donor 2
  IL-10 Conc: 0 pg/mL
IL-10; LPS-stimulated monocytes
  effect on IL-10 secretion: co-induced
IL-10; [26]
  effect on IL-10 secretion: induced
IL-10; [10]
  IL-10 Conc: 775 pg/mL
IL-10; [11]
  IL-10 Conc: 1125 pg/mL
IL-10; [12]
  IL-10 Conc: 886 pg/mL
IL-10; [13]
  IL-10 Conc: 1385 pg/mL
IL-10; [14]
  IL-10 Conc: 1026 pg/mL
IL-10; [15]
  IL-10 Conc: 2035 pg/mL
IL-10; [16]
  IL-10 Conc: 351 pg/mL
IL-10; [17]
  IL-10 Conc: 800 pg/mL
IL-10; [18]
  IL-10 Conc: 7 pg/mL
IL-10; [19]
  IL-10 Conc: 40 pg/mL
IL-10; [20]
  IL-10 Conc: 0 pg/mL
IL-10; [21]
  IL-10 Conc: 0 pg/mL
IL-10; [22]
  IL-10 Conc: 0 pg/mL
IL-10; [23]
  IL-10 Conc: 0 pg/mL
IL-10; [24]
  IL-10 Conc: 0 pg/mL
IL-10; [25]
  IL-10 Conc: 0 pg/mL
[1]
  pH-value of the solution: 9-10
TNF-alpha; LPS 1 ng/ml, 1 μM MMF, Donor 1
  TNF-alpha Conc: 464 pg/mL
TNF-alpha; LPS 1 ng/ml, 1 μM MMF, Donor 2
  TNF-alpha Conc: 459 pg/mL
TNF-alpha; LPS 1 ng/ml, 3 μM MMF, Donor 1
  TNF-alpha Conc: 631 pg/mL
TNF-alpha; LPS 1 ng/ml, 3 μM MMF, Donor 2
  TNF-alpha Conc: 650 pg/mL
TNF-alpha; [2]
  TNF-alpha Conc: 1624 pg/mL
TNF-alpha; [3]
  TNF-alpha Conc: 2559 pg/mL
TNF-alpha; [4]
  TNF-alpha Conc: 1787 pg/mL
TNF-alpha; [5]
  TNF-alpha Conc: 3289 pg/mL
TNF-alpha; [6]
  TNF-alpha Conc: 250 pg/mL
TNF-alpha; [7]
  TNF-alpha Conc: 711 pg/mL
TNF-alpha; [8]
  TNF-alpha Conc: 20 pg/mL
TNF-alpha; [9]
  TNF-alpha Conc: 96 pg/mL
TNF-alpha; LPS 1 ng/ml, 1 mM MMF, Donor 1
  TNF-alpha Conc: 0 pg/mL
TNF-alpha; LPS 1 ng/ml, 1 mM MMF, Donor 2
  TNF-alpha Conc: 11 pg/mL
TNF-alpha; LPS 1 ng/ml, 3 mM MMF, Donor 1
  TNF-alpha Conc: 0 pg/mL
TNF-alpha; LPS 1 ng/ml, 3 mM MMF, Donor 2
  TNF-alpha Conc: 0 pg/mL
TNF-alpha; LPS-stimulated monocytes
  effect on TNF-alpha secretion: co-stimulatory
TNF-alpha; [26]
  effect on TNF-alpha secretion: induced
TNF-alpha; [10]
  TNF-alpha Conc: 29 pg/mL
TNF-alpha; [11]
  TNF-alpha Conc: 13 pg/mL
TNF-alpha; [12]
  TNF-alpha Conc: 38 pg/mL
TNF-alpha; [13]
  TNF-alpha Conc: 10 pg/mL
TNF-alpha; [14]
  TNF-alpha Conc: 570 pg/mL
TNF-alpha; [15]
  TNF-alpha Conc: 47 pg/mL
TNF-alpha; [16]
  TNF-alpha Conc: 1343 pg/mL
TNF-alpha; [17]
  TNF-alpha Conc: 682 pg/mL
TNF-alpha; [18]
  TNF-alpha Conc: 313 pg/mL
TNF-alpha; [19]
  TNF-alpha Conc: 236 pg/mL
TNF-alpha; [20]
  TNF-alpha Conc: 3 pg/mL
TNF-alpha; [21]
  TNF-alpha Conc: 12 pg/mL
TNF-alpha; [22]
  TNF-alpha Conc: 0 pg/mL
TNF-alpha; [23]
  TNF-alpha Conc: 3 pg/mL
TNF-alpha; [24]
  TNF-alpha Conc: 0 pg/mL
TNF-alpha; [25]
  TNF-alpha Conc: 0 pg/mL
